Measurements published in PubChem BioAssay (NCI).
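Each compound was tested at five concentrations against cells in 96-well plates for 48 hours. At the GI50, growth is halved. Definition used: TGI = concentration required for complete inhibition of growth.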

Columns and labels:
Test in all cases: inhibition of tumour cell growth, NCI panel, 48 h
SF-268 CNS = tested on: SF-268 CNS
NCI-H522 lung = tested on: NCI-H522 lung
TK-10 renal = tested on: TK-10 renal
HT29 colon = tested on: HT29 colon
NCI-H460 lung = tested on: NCI-H460 lung
UACC-62 melanoma = tested on: UACC-62 melanoma
EKVX NSCLC = tested on: EKVX NSCLC
SN12C renal = tested on: SN12C renal
UACC-257 melanoma = tested on: UACC-257 melanoma
NCI/ADR-RES ovarian = tested on: NCI/ADR-RES ovarian

COC(=O)[C@]1(C)C(OC)=CC(=O)C2C1[C@H]1CCC[C@@H]21 (stereo partly drawn)
TGI (SF-268 CNS): > 100 µM
TGI (NCI-H522 lung): > 100 µM
TGI (TK-10 renal): > 100 µM
TGI (HT29 colon): > 100 µM
TGI (NCI-H460 lung): > 100 µM
TGI (UACC-62 melanoma): > 100 µM
TGI (EKVX NSCLC): > 100 µM
TGI (SN12C renal): > 100 µM
TGI (UACC-257 melanoma): > 100 µM

COC(=O)C(CC(=O)c1c[nH]c2ccccc12)c1c[nH]c2ccccc12 (stereo not drawn)
TGI (TK-10 renal): 76.9 µM
TGI (HT29 colon): 31.2 µM
TGI (NCI-H460 lung): 37.9 µM
TGI (UACC-62 melanoma): > 10 µM
TGI (EKVX NSCLC): 74.1 µM
TGI (UACC-257 melanoma): 30.4 µM

S=P(N1CCCC1)(N1CC1)N1CC1
TGI (SF-268 CNS): > 100 µM
TGI (NCI-H522 lung): > 100 µM
TGI (TK-10 renal): > 100 µM
TGI (HT29 colon): > 100 µM
TGI (NCI-H460 lung): > 100 µM
TGI (UACC-62 melanoma): > 100 µM
TGI (EKVX NSCLC): > 100 µM
TGI (SN12C renal): > 100 µM
TGI (UACC-257 melanoma): > 100 µM

CCOC(=O)c1c(-c2ccccc2)c(C(OC(c2ccccc2)c2c(-c3ccccc3)c(C(=O)OCC)n3ccccc23)c2ccccc2)c2ccccn12 (stereo not drawn)
TGI (SF-268 CNS): > 100 µM
TGI (NCI-H522 lung): > 100 µM
TGI (TK-10 renal): > 100 µM
TGI (HT29 colon): > 100 µM
TGI (NCI-H460 lung): > 100 µM
TGI (UACC-62 melanoma): > 100 µM
TGI (EKVX NSCLC): > 100 µM
TGI (SN12C renal): > 100 µM
TGI (UACC-257 melanoma): > 100 µM

Clc1ccc2ns[s+]c2c1
TGI (SF-268 CNS): > 100 µM
TGI (NCI-H522 lung): > 100 µM
TGI (TK-10 renal): > 61.1 µM
TGI (HT29 colon): > 100 µM
TGI (NCI-H460 lung): > 100 µM
TGI (UACC-62 melanoma): > 100 µM
TGI (EKVX NSCLC): > 100 µM
TGI (SN12C renal): > 100 µM
TGI (UACC-257 melanoma): > 100 µM

Nc1ccc(C(=O)CC2(O)C(=O)Nc3c(Cl)cc(Cl)cc32)cc1 (stereo not drawn)
TGI (SF-268 CNS): > 100 µM
TGI (NCI-H522 lung): > 100 µM
TGI (TK-10 renal): > 100 µM
TGI (HT29 colon): > 100 µM
TGI (NCI-H460 lung): > 100 µM
TGI (EKVX NSCLC): > 100 µM
TGI (SN12C renal): > 100 µM
TGI (UACC-257 melanoma): > 100 µM

COc1cc(C2c3cc4c(cc3[C@@H](OCCN(C)C)C3COC(=O)[C@H]23)OCO4)cc(OC)c1O (stereo partly drawn)
TGI (SF-268 CNS): 3.83 µM
TGI (NCI-H522 lung): 1.7 µM
TGI (TK-10 renal): 5.49 µM
TGI (HT29 colon): 2.43 µM
TGI (NCI-H460 lung): 0.441 µM
TGI (UACC-62 melanoma): 1.38 µM
TGI (EKVX NSCLC): 6.07 µM
TGI (SN12C renal): 0.606 µM
TGI (UACC-257 melanoma): 8.25 µM

Cc1ccc(/C=C2/NC(=S)SC2=O)cc1
TGI (TK-10 renal): 53.9 µM
TGI (HT29 colon): > 100 µM
TGI (NCI-H460 lung): 50.4 µM
TGI (EKVX NSCLC): > 100 µM
TGI (NCI/ADR-RES ovarian): > 100 µM
TGI (SN12C renal): > 100 µM
TGI (UACC-257 melanoma): > 100 µM

CN1C(=O)C2C=CC1C1CCC2N(C)C1=O (stereo not drawn)
TGI (SF-268 CNS): > 100 µM
TGI (NCI-H522 lung): > 100 µM
TGI (TK-10 renal): > 100 µM
TGI (HT29 colon): > 100 µM
TGI (UACC-62 melanoma): > 100 µM
TGI (EKVX NSCLC): > 100 µM
TGI (SN12C renal): > 100 µM
TGI (UACC-257 melanoma): > 100 µM

O=c1cc(-c2ccccn2)[nH]c2cc(F)ccc12
GI50 (SF-268 CNS): 29.5 µM
TGI (SF-268 CNS): > 100 µM
TGI (NCI-H522 lung): > 100 µM
TGI (TK-10 renal): > 100 µM
TGI (HT29 colon): > 100 µM
TGI (NCI-H460 lung): > 100 µM
TGI (UACC-62 melanoma): > 100 µM
TGI (EKVX NSCLC): > 100 µM
TGI (SN12C renal): > 100 µM
TGI (UACC-257 melanoma): > 100 µM

Cn1cc(C2=C(c3cn(C)c4cc(N)ccc34)C(=O)NC2=O)c2ccccc21
GI50 (SF-268 CNS): 3.67 µM
TGI (SF-268 CNS): 13.7 µM
GI50 (NCI-H522 lung): 1.36 µM
TGI (NCI-H522 lung): 8.53 µM
GI50 (TK-10 renal): 4.03 µM
TGI (TK-10 renal): 14.3 µM
GI50 (HT29 colon): 1.07 µM
TGI (HT29 colon): 6.8 µM
GI50 (NCI-H460 lung): 1.4 µM
TGI (NCI-H460 lung): > 25 µM
GI50 (UACC-62 melanoma): 3.44 µM
TGI (UACC-62 melanoma): 8.39 µM
GI50 (NCI/ADR-RES ovarian): 4.58 µM
TGI (NCI/ADR-RES ovarian): 24.2 µM
GI50 (SN12C renal): 3.44 µM
TGI (SN12C renal): 17 µM
GI50 (UACC-257 melanoma): 5.89 µM
TGI (UACC-257 melanoma): 18.1 µM

CC[C@H](Nc1nc(N)nc(C2CC2)c1C#N)c1nc2cccc(NCc3ccc(C(=O)NO)cc3)c2c(=O)n1-c1ccccc1
GI50 (SF-268 CNS): 1.74 µM
TGI (SF-268 CNS): 4.12 µM
GI50 (NCI-H522 lung): 1.69 µM
TGI (NCI-H522 lung): 4.67 µM
GI50 (TK-10 renal): 2.75 µM
TGI (TK-10 renal): 30.3 µM
GI50 (NCI-H460 lung): 1.7 µM
TGI (NCI-H460 lung): 3.79 µM
GI50 (EKVX NSCLC): 1.75 µM
TGI (EKVX NSCLC): 3.73 µM
GI50 (NCI/ADR-RES ovarian): 3.31 µM
TGI (NCI/ADR-RES ovarian): 15.6 µM
GI50 (SN12C renal): 1.79 µM
TGI (SN12C renal): 5.39 µM
GI50 (UACC-257 melanoma): 2.05 µM
TGI (UACC-257 melanoma): 6.16 µM

CCCCCCCCCCCCCCCCCCNC(=O)OCC(CNS(=O)(=O)CCC[n+]1cccc2ccccc21)COC (stereo not drawn)
TGI (SF-268 CNS): > 20.4 µM
TGI (TK-10 renal): 31.1 µM
TGI (NCI-H460 lung): > 100 µM
TGI (UACC-62 melanoma): 8.21 µM
TGI (EKVX NSCLC): 65.7 µM
TGI (NCI/ADR-RES ovarian): 34.2 µM
TGI (SN12C renal): 20.8 µM
TGI (UACC-257 melanoma): 8.24 µM

Cc1c(Cl)cccc1NC(=O)/C(Cl)=C(\Cl)C(=O)O
TGI (SF-268 CNS): 40.9 µM
TGI (NCI-H522 lung): 7.19 µM
TGI (TK-10 renal): 35.2 µM
TGI (HT29 colon): 38 µM
TGI (NCI-H460 lung): > 100 µM
TGI (UACC-62 melanoma): 26.6 µM
TGI (SN12C renal): 31.2 µM
TGI (UACC-257 melanoma): 36.7 µM

COC(=O)C1Cc2c([nH]c3ccccc23)C(c2ccccc2O)N1Cc1ccccc1 (stereo not drawn)
TGI (SF-268 CNS): > 31.6 µM
TGI (NCI-H522 lung): > 31.6 µM
TGI (TK-10 renal): > 46.4 µM
TGI (HT29 colon): > 46.4 µM
TGI (NCI-H460 lung): > 46.4 µM
TGI (UACC-62 melanoma): 33.1 µM
TGI (EKVX NSCLC): > 31.6 µM
TGI (SN12C renal): > 46.4 µM
TGI (UACC-257 melanoma): > 46.4 µM

COc1c(Sc2ccccc2)cc(Sc2ccccc2)c2cccnc12
TGI (SF-268 CNS): > 100 µM
TGI (TK-10 renal): 81.3 µM
TGI (HT29 colon): 71.1 µM
TGI (NCI-H460 lung): 54.5 µM
TGI (UACC-62 melanoma): 63.2 µM
TGI (EKVX NSCLC): > 100 µM
TGI (SN12C renal): 97.6 µM
TGI (UACC-257 melanoma): 41.1 µM

CC1=NOC(=O)C1N=Nc1ccc(Br)c(C)c1 (stereo not drawn)
TGI (SF-268 CNS): 47.6 µM
TGI (TK-10 renal): 33.2 µM
TGI (HT29 colon): > 100 µM
TGI (NCI-H460 lung): 58.6 µM
TGI (UACC-62 melanoma): 37.7 µM
TGI (EKVX NSCLC): 32 µM
TGI (SN12C renal): 48.5 µM
TGI (UACC-257 melanoma): 35.4 µM

COC(=O)[C@H]1N[C@@H](C(=O)OC)C23CCC[C@H]2CC[C@]1(C(OC)OC)C3
TGI (SF-268 CNS): > 100 µM
TGI (NCI-H522 lung): > 100 µM
TGI (TK-10 renal): > 100 µM
TGI (HT29 colon): > 100 µM
TGI (NCI-H460 lung): > 100 µM
TGI (UACC-62 melanoma): > 100 µM
TGI (EKVX NSCLC): > 100 µM
TGI (SN12C renal): > 100 µM
TGI (UACC-257 melanoma): > 100 µM

COc1ccc(/C=C\c2cc(OC)c(OC)c(OC)c2)c(NS(=O)(=O)c2ccc(Cl)cc2)c1O
GI50 (SF-268 CNS): 0.38 µM
TGI (SF-268 CNS): 33.9 µM
GI50 (NCI-H522 lung): 0.0848 µM
TGI (NCI-H522 lung): 0.607 µM
GI50 (TK-10 renal): 0.998 µM
TGI (TK-10 renal): 27.7 µM
GI50 (HT29 colon): 2.76 µM
TGI (HT29 colon): 11.9 µM
GI50 (NCI-H460 lung): 0.316 µM
TGI (NCI-H460 lung): 14.4 µM
GI50 (UACC-62 melanoma): 0.0635 µM
TGI (UACC-62 melanoma): 22.6 µM
GI50 (NCI/ADR-RES ovarian): 0.263 µM
TGI (NCI/ADR-RES ovarian): 22.4 µM
GI50 (SN12C renal): 0.708 µM
TGI (SN12C renal): 46.5 µM
GI50 (UACC-257 melanoma): 14.2 µM
TGI (UACC-257 melanoma): 60.5 µM

CCN(CC)CCOc1c(OC)c(Br)cc2c(C)c(C(=O)OC)oc12
GI50 (SF-268 CNS): 1.33 µM
TGI (SF-268 CNS): 5.08 µM
GI50 (NCI-H522 lung): 1.32 µM
TGI (NCI-H522 lung): 11.9 µM
GI50 (TK-10 renal): 1.12 µM
TGI (TK-10 renal): 2.99 µM
GI50 (NCI-H460 lung): 1.31 µM
TGI (NCI-H460 lung): 3.75 µM
GI50 (UACC-62 melanoma): 1.33 µM
TGI (UACC-62 melanoma): 4.92 µM
GI50 (EKVX NSCLC): 1.55 µM
TGI (EKVX NSCLC): 5.01 µM
GI50 (NCI/ADR-RES ovarian): 6.45 µM
TGI (NCI/ADR-RES ovarian): 12.8 µM
GI50 (SN12C renal): 0.92 µM
TGI (SN12C renal): 2.36 µM
GI50 (UACC-257 melanoma): 1.53 µM
TGI (UACC-257 melanoma): 4.29 µM

NC(=O)c1csc(C2CCC(CO)O2)n1 (stereo not drawn)
TGI (SF-268 CNS): > 100 µM
TGI (NCI-H522 lung): > 100 µM
TGI (TK-10 renal): > 100 µM
TGI (HT29 colon): > 100 µM
TGI (NCI-H460 lung): > 100 µM
TGI (UACC-62 melanoma): > 100 µM
TGI (EKVX NSCLC): > 100 µM
TGI (SN12C renal): > 100 µM
TGI (UACC-257 melanoma): > 100 µM
